Data set [1] concerns the target T1, Histamine H3 Receptor (Rattus norvegicus, UniProt Q9QYN8). The data set is described as follows: Blockade of RAMH-induced drinking assay. It counts as in vivo. The following applies: male Sprague Dawley rats, 0.3 mg/kg PO, RAMH 3 mg/kg SC, reduction in water intake. The procedure: Blockade of RAMH-Induced Drinking Assay
When administered to rodents, histamine H3 receptor agonists such as (R)-α-methylhistamine (RAMH) induce a drinking response that is sensitive to reversal with a histamine H3 receptor antagonist. Blockade of RAMH-induced drinking can therefore be utilized as an in vivo assay for functional histamine H3 receptor antagonist activity. In this assay, male Sprague Dawley rats (250-350 g) were housed three per cage and maintained under a reverse 12 h light cycle (lights off at 1130 h). At 1030 h on the day of test, rats were individually housed in new cages and food was removed. 120 min later, rats were administered test article (vehicle or histamine H3 receptor antagonist, 0.3 mg/kg PO). 30 min later, water was removed, and RAMH (vehicle or RAMH 3 mg/kg salt SC) was administered. 10 min after administration of RAMH, weighed water bottles were placed in the cages, and drinking was allowed for 20 min. Water consumption was determined for each animal by weighing each bottle to the nearest 0.1 g. Data is expressed as percentage reduction in water intake according to the following formula:
[((VEH/RAMH)−(ANTAGONIST/RAMH))/((VEH/RAMH)−(VEH/VEH))]*100

The target in data set [2] is T1, Histamine H3 Receptor. Kind of data set: [3H] N-alpha-methyl-histamine competitive histamine H3 receptor binding assay. Also noted: A crude membrane fraction was prepared from whole rat brain cortex; from tissue; host or cells: whole rat brain cortex, crude membrane fraction. The following applies: whole rat brain cortex membranes, [3H]-N-α-methylhistamine 1 nM. On the procedure:
[^3H] N-Alpha-Methyl-Histamine Competitive Histamine H3 Receptor Binding Assay
The histamine receptor binding assay was conducted using standard laboratory procedures as described below. A crude membrane fraction was prepared from whole rat brain cortex using a polytron to homogenize the tissue followed by differential centrifugation in a HEPES-based buffer containing protease inhibitors. Membranes where frozen at −80° C. until needed. Frozen membranes were thawed and resuspended in ice-cold assay buffer consisting of 50 mM TRIS containing 5 mM EDTA (pH=7.4). 50 micrograms (μg) of membrane protein was added to each well of a 96-well assay plate along with test compound and [^3H]-N-α-methylhistamine (1 nanomolar (nM) final assay concentration). Imetit was used as an assay positive control at varying concentrations. The plate was incubated for 30 min at room temperature. The assay was terminated by rapid filtration through a 96-well glass fiber filtration plate (GF/C) using a cell harvester (Perkin-Elmer). Captured membranes were washed three times with cold assay buffer and plates were dried at 50° C. 35 microliters (μL) of scintillation cocktail was added to each well and membrane-bound radioactivity was recorded using a TopCount 96-well plate scintillation counter (Perkin-Elmer).

For data set [3], the target named is T2, human histamine H3 receptor (Homo sapiens, UniProt Q9Y5N1).
T2 construct: purchased MDS Pharma Services (Taiwan) 239810
T2 sequence (Q9Y5N1 whole entry): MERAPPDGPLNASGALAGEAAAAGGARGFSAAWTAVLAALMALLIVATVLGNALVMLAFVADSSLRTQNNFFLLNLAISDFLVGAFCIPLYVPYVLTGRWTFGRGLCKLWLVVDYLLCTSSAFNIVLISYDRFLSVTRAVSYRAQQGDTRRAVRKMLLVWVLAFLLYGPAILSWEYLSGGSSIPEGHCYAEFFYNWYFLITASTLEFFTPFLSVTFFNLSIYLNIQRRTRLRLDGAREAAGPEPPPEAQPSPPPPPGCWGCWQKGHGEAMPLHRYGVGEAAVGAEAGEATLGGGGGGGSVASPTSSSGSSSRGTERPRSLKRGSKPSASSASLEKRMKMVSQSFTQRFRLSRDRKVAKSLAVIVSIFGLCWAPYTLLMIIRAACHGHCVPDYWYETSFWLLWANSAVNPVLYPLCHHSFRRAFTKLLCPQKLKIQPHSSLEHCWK
The data set is described as follows: Human histamine H3 receptor binding assay, MDS Pharma Services (Taiwan), Catalogue No. 239810. The procedure:
Human Histamine H3 Receptor Binding Assay—MDS Pharma Services (Taiwan)
Compounds of the invention were tested for their ability to bind to the human histamine H3 receptor using the MDS Pharma Services (Taiwan) assay, Catalogue No. 239810.

The nature of data set [4]: Dynamic vapor sorption (DVS) hygroscopicity. The format is physicochemical. The following applies: 25° C. On the procedure:
Dynamic Vapor Sorption (DVS)
Hygroscopicity was measured using a dynamic moisture-sorption analyzer, VTI Corporation, SGA-100. The sample was placed as-is in a tared sample holder on the VTI balance. A drying step was run at 40° C. and ˜1% RH for 120 minutes. The isotherm conditions are 25° C. with steps of 20% RH from 10% RH up to 90% RH and back to 10% RH. Weight is checked every 2 minutes. Percent weight change of <0.01% in 20 minutes or 2 hours, whichever occurs first, is required before continuing to the next step. The DVS profile for the crystalline form (Form 1) of (R)-2-hydroxy-1-(6-(4-(2-(2-methylpyrrolidin-1-yl)ethyl)phenyl)-3,4-dihydroisoquinolin-2(1H)-yl)ethanone hydrochloride is shown in FIG. 16.

The structures appear in SMILES notation. pKi: −log10 of the molar value. Where a name gives a salt, the structure may show the parent alone.

In general, pKi refers to the negative decadic logarithm of the Ki, by convention in mol/L. Low values mean a large Ki, high ones a small Ki.

T1 sequence (Q9QYN8 whole entry): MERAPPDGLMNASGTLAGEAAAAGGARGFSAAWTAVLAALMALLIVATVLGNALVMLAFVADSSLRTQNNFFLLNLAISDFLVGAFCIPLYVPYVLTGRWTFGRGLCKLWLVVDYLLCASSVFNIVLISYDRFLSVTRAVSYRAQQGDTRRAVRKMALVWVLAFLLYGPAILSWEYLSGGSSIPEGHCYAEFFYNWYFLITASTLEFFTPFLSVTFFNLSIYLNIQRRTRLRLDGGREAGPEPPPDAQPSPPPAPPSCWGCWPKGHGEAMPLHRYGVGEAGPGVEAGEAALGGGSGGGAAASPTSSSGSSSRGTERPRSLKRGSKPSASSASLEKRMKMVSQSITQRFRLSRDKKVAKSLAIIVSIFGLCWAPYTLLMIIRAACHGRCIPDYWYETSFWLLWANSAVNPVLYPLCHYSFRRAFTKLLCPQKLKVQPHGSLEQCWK

Take `COCCC(=O)N1CCc2ccc(-c3ccc(CCN4CCC[C@H]4C)cc3)cc2C1` [Compound 1, (R)-3-methoxy-1-(7-(4-(2-(2-methylpyrrolidin-1-yl)ethyl)phenyl)-3,4-dihydroisoquinolin-2(1H)-yl)propan-1-one]: at Histamine H3 Receptor [1], the “% inhibition of RAMH-induced drinking” value is recorded as 81.6%.
On Histamine H3 Receptor [2], `C[C@@H]1CCCN1CCc1ccc(-c2ccc3c(c2)CCN(C(=O)C2CC2)C3)cc1` [Compound 3, (R)-cyclopropyl(6-(4-(2-(2-methylpyrrolidin-1-yl)ethyl)phenyl)-3,4-dihydroisoquinolin-2(1H)-yl)methanone] gave a negative logarithm of the Ki (pKi) of 9.35.
Consider `C[C@@H]1CCCN1CCc1ccc(-c2ccc3c(c2)CN(C(=O)C2CC2)C3)cc1` [Compound 5, (R)-cyclopropyl(5-(4-(2-(2-methylpyrrolidin-1-yl)ethyl)phenyl)isoindolin-2-yl)methanone], for which the pKi is 9.24 in data set [3] and 9.96 on Histamine H3 Receptor [2].
As to `COc1ccc(C(=O)N2CCc3cc(-c4ccc(CCN5CCC[C@H]5C)cc4)ccc3C2)cc1` [Compound 9, (R)-(4-methoxyphenyl)(6-(4-(2-(2-methylpyrrolidin-1-yl)ethyl)phenyl)-3,4-dihydroisoquinolin-2(1H)-yl)methanone], the pKi on Histamine H3 Receptor [2] was 8.96.
Regarding `C[C@@H]1CCCN1CCc1ccc(-c2ccc3c(c2)CCN(C(=O)CO)C3)cc1` [Compound 10 HCl Salt (Form 1), (R)-2-hydroxy-1-(6-(4-(2-(2-methylpyrrolidin-1-yl)ethyl)phenyl)-3,4-dihydroisoquinolin-2(1H)-yl)ethanone hydrochloride], the “DVS absorption at 90% relative humidity” value is listed as “FIG. 16: absorption of less than 0.25%” in data set [4] (crystalline Form 1, hydrochloride) and “about 0.25%” in data set [4] (crystalline Form 1, listed as Form 1 of the HCl salt of Compound 10, hydrochloride).
With `C[C@@H]1CCCN1CCc1ccc(-c2ccc3c(c2)CN(C(=O)C2CCOCC2)C3)cc1` [Compound 12, (R)-(5-(4-(2-(2-methylpyrrolidin-1-yl)ethyl)phenyl)isoindolin-2-yl)(tetrahydro-2H-pyran-4-yl)methanone], the negative logarithm of the Ki (pKi) on Histamine H3 Receptor [2] is 10.05.
For the compound `C[C@@H]1CCCN1CCc1ccc(-c2ccc3c(c2)CCN(C(=O)c2ccncc2)C3)cc1` [Compound 14, (R)-(6-(4-(2-(2-methylpyrrolidin-1-yl)ethyl)phenyl)-3,4-dihydroisoquinolin-2(1H)-yl)(pyridin-4-yl)methanone], the “% inhibition of RAMH-induced drinking” value on Histamine H3 Receptor [1] was determined as 40.7%.
`C[C@@H]1CCCN1CCc1ccc(-c2ccc3c(c2)CCN(C(=O)CCO)C3)cc1` [Compound 16, (R)-3-hydroxy-1-(6-(4-(2-(2-methylpyrrolidin-1-yl)ethyl)phenyl)-3,4-dihydroisoquinolin-2(1H)-yl)propan-1-one] showed a pKi at Histamine H3 Receptor [2] of 8.82.
Consider `C[C@@H]1CCCN1CCc1ccc(-c2ccc3c(c2)CCN(C(=O)c2ccccn2)C3)cc1` [Compound 18, (R)-(6-(4-(2-(2-methylpyrrolidin-1-yl)ethyl)phenyl)-3,4-dihydroisoquinolin-2(1H)-yl)(pyridin-2-yl)methanone], for which the pKi in data set [3] was 8.67. Moreover, the “% inhibition of RAMH-induced drinking” value at Histamine H3 Receptor [1] was determined as 66.1%.

The values above are taken from patent US20100331312A1, “MODULATORS OF THE HISTAMINE H3 RECEPTOR USEFUL FOR THE TREATMENT OF DISORDERS RELATED THERETO” (ARENA PHARMACEUTICALS, INC., priority 2008, published 2010).
